Measured values reported in patent US7223791B2, “Function regulator for retinoid relative receptor” (Takeda Pharmaceutical Company Limited, priority 2001, dated 2007).

Experiments:
PPARγ-RXRα heterodimer = molecular target: T1, PPARγ-RXRα heterodimer (Homo sapiens, UniProt P19793+P37231); test: PPARγ-RXRα heterodimer ligand activity (luciferase reporter, PPARγ:RXRα:4ERPP/CHO-K1 cells); assay type: cell-based; details: 48 hrs, concentration for 50% of the maximum fold induction
T1 construct: 1.4 kb DNA fragment containing PPARγ gene was recovered from the gel; 1.4 kb DNA fragment containing RXRα gene was recovered from the gel; expressed in transfected cells
T1 sequence (P37231 1-477 isoform P37231-2): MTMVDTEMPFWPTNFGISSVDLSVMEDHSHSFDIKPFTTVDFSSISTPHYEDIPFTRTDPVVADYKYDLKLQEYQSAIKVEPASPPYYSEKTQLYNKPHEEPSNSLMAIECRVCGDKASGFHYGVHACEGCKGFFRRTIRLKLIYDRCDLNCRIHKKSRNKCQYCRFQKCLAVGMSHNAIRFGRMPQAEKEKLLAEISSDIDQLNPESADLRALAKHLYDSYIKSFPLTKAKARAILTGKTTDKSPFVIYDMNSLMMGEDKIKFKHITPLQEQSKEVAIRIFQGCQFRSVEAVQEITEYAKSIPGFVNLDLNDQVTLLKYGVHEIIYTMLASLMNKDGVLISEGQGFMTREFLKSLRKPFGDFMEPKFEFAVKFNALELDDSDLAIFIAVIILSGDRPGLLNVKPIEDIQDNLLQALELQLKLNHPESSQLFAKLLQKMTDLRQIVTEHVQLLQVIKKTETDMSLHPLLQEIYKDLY
T1 sequence (P19793 1-462): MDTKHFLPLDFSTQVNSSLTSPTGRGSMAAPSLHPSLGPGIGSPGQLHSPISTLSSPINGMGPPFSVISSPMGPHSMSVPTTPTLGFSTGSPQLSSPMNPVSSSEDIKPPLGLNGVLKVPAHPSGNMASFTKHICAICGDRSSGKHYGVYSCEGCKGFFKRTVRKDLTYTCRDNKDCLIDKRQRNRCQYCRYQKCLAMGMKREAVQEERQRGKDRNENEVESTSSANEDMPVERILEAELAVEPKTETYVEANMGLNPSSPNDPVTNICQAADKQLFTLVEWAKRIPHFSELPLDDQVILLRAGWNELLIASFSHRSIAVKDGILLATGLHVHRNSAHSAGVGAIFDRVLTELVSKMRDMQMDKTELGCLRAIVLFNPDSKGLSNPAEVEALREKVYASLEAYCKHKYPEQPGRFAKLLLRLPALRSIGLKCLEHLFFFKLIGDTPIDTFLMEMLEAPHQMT
Protocol: (PPARγ-RXRα Heterodimer Ligand Activity)
PPARγ: RXRα: 4ERPP/CHO-K1 cells obtained in the following Reference Example 5 were cultured in HAM F12 medium (manufactured by NISSUI SEIYAKU) containing 10% fetal bovine serum [manufactured by Life Technologies, Inc., USA], seeded in a 96-well white plate [manufactured by Corning Coster Corporation, USA] at the density of 2×10^4 cells/well and cultured in a CO2 gas incubator at 37° C. overnight.
After washing the 96-well white plate with PBS (Phosphate-buffered saline), 90 μl of HAM F12 medium containing 0.1% fatty acid-free bovine serum albumin (BSA) and 10 μl of test compound were added, and the cells were cultured in a CO2 gas incubator at 37° C. for 48 hrs. The medium was removed and 40 μl of PicaGene 7.5 (manufactured by Wako Pure Chemical Industries, Ltd.) was added. After stirring, the luciferase activity was determined using Lumistar [manufactured by BMG Labtechnologies GmbH, Germany].
The fold induction was calculated from the luciferase activity of each test compound when the luciferase activity of the test compound non-administration group is taken as 1. The values of the test compound concentration and the fold induction were analyzed using PRISM 2.01 (produced by GraphPad Software Inc. USA) to calculate the EC50 values, the concentration of a test compound for 50% of the maximum fold induction. The results are shown in [Table 2].
Introduction of Human PPARγ- and RXRα-Expression Plasmid and Reporter Plasmid into CHO-K1 Cell as Well as Establishment of Expressed Cell
A CHO-K1 cell cultured in a tissue culture flask (750 ml) [produced by Corning Costar Corporation, USA] containing HAM F12 medium (produced by NISSUI SEIYAKU) supplemented with 10% fetal bovine serum [produced by Life Technologies, Inc., USA] was scraped by treating with 0.5 g/L trypsin-0.2 g/L EDTA (ethylenediamine tetraacetate) [produced by Life Technologies, Inc., USA], and then the cell was washed with PBS (Phosphate-buffered saline)[produced by Life Technologies, Inc., USA], centrifuged (1000 rpm, 5 minutes) and suspended in PBS. Subsequently, DNA was introduced into the cell under the conditions shown below using GENE PULSER (produced by Bio-Rad Laboratories, USA).
Namely, to a cuvette having a 0.4 cm gap were added 8×10^6 cells and 10 μg of plasmid pVgRXR2-hPPARγ obtained in Reference Example 3 and 10 μg of reporter plasmid pGL3-4ERPP-TK neo obtained in Reference Example 4, which was subjected to electroporation at the voltage of 0.25 kV under the capacitance of 960 μF. Subsequently, the cell was transferred into a HAM F12 medium containing 10% fetal bovine serum and cultured for 24 hours, and then the cell was scraped again and centrifuged, and then suspended in HAM F12 medium containing 10% fetal bovine serum supplemented with 500 μg/ml of Geneticin [produced by Life Technologies, Inc., USA] and 250 μg/ml of Zeocin (produced by Invitrogen, USA). The obtained suspension was diluted to the density of 10^4 cells/ml and inoculated in a 96-well plate [produced by Corning Costar Corporation, USA], which was cultured in a CO2 gas incubator at 37° C., whereby obtaining a Geneticin- and Zeocin-resistant transformant.
Subsequently, after the transformant cell line thus obtained was cultured in a 24-well plate [produced by Corning Costar Corporation, USA], a cell line in which the luciferase was expressed and induced, i.e., PPARγ: RXRα: 4ERPP/CHO-K1 cell was selected by the addition of 10 μM pioglitazone hydrochloride.

Row | SMILES | EC50 (PPARγ-RXRα heterodimer) | melting point
1 | CCOC(=O)c1ccc(-c2ccc(-c3ccc(C(F)(F)F)cc3)o2)cc1 [Example 6, ethyl 4-[5-(4-triflubromethylphenyl)-2-furyl]benzoate] | 3.6 nM | –
2 | Cn1c(-c2ccc(C(=O)O)cc2)ccc1-c1ccc(C(F)(F)F)cc1 [Example 7, 4-[1-methyl-5-(4-trifluoromethylphenyl)-2-pyrrolyl]benzoic acid] | 7.6 nM | 260 to 261 °C
3 | O=C(O)c1cccc(-c2ccc(-c3ccc(C(F)(F)F)cc3)o2)c1 [Example 9, 3-[5-(4-trifluoromethylphenyl)-2-furyl]benzoic acid] | 54 nM | 271 to 272 °C
4 | O=C(O)c1ccc(-c2ccc(-c3ccc(C(F)(F)F)cc3)s2)cc1 [Example 16, 4-[5-(4-trifluoromethylphenyl)-2-thienyl]benzoic acid] | 23 nM | 284 to 285 °C
5 | O=C(O)c1ccc(-c2cc(-c3ccc(C(F)(F)F)cc3)no2)cc1 [Example 26, 4-[3-(4-trifluorophenyl)-5-isoxazolyl]benzoic acid] | 23 nM | –
6 | O=C(O)c1cccc(-c2cc(-c3ccccc3)on2)c1 [Example 27, 3-(5-phenyl-3-isoxazolyl)benzoic acid] | 2.1 nM | 250 to 251 °C
7 | O=C(O)c1ccc(-c2cc(-c3ccccc3)on2)cc1 [Example 28, 4-(5-phenyl-3-isoxazolyl)benzoic acid] | 2.3 nM | 297 to 298 °C
8 | O=C(O)c1cccc(-c2cc(-c3ccc(Cl)cc3)on2)c1 [Example 29, 3-[5-(4-chlorophenyl)-3-isoxazolyl]benzoic acid] | 0.59 nM | 298 to 299 °C
9 | O=C(O)c1ccc(-c2cc(-c3ccc(Cl)cc3)on2)cc1 [Example 30, 4-[5-(4-chlorophenyl)-3-isoxazolyl]benzoic acid] | 6 nM | > 300 °C
10 | O=C(O)c1cccc(-c2cc(-c3ccc(C(F)(F)F)cc3)no2)c1 [Example 33, 3-[3-(4-trifluoromethylphenyl)-5-isoxazolyl]benzoic acid] | 2.7 nM | 272 to 273 °C
11 | O=C(O)c1cccc(-c2cc(-c3ccc(C(F)(F)F)cc3)on2)c1 [Example 34, 3-[5-(4-trifluoromethylphenyl)-3-isoxazolyl]benzoic acid] | 1.2 nM | 276 to 277 °C
12 | O=C(O)c1ccc(-c2cc(-c3ccc(C(F)(F)F)cc3)on2)cc1 [Example 35, 4-[5-(4-trifluoromethylphenyl)-3-isoxazolyl]benzoic acid] | 3.8 nM | > 300 °C
13 | O=C(O)c1ccc(-c2noc(-c3ccc(C(F)(F)F)cc3)n2)cc1 [Example 44, 4-[5-(4-trifluoromethylphenyl)-1,2,4-oxadiazol-3-yl]benzoic acid] | 68 nM | 286 to 287 °C
14 | Nc1cc(C(=O)O)ccc1-c1nnc(-c2ccc(C(F)(F)F)cc2)o1 [Example 71, 3-amino-4-[5-(4-trifluoromethylphenyl)-1,3,4-oxadiazol-2-yl]benzoic acid] | – | > 300 °C
15 | CC(C)(C)c1ccc(-c2nnc(-c3ccc(C(=O)O)cc3N)o2)cc1 [Example 72, 3-amino-4-[5-(4-t-butylphenyl)-1,3,4-oxadiazol-2-yl]benzoic acid] | – | 266 to 268 °C
16 | NC(=O)c1ccc(-c2ccc(-c3ccc(C(F)(F)F)cc3)o2)cc1 [Example 73, 4-[5-(4-trifluoromethylphenyl)-2-furyl]benzamide] | – | 263 to 264 °C
17 | COC(=O)c1ccc(-c2nc(-c3ccc(C(C)(C)C)cc3)no2)c(N)c1 [Example 74, methyl 3-amino-4-[3-(4-t-butylphenyl)-1,2,4-oxadiazol-5-yl]benzoate] | – | 195 to 196 °C
18 | COC(=O)c1ccc(-c2nc(-c3ccc(Cl)cc3)no2)c(N)c1 [Example 75, methyl 3-amino-4-[3-(4-chlorophenyl)-1,2,4-oxadiazol-5-yl]benzoate] | – | 227 to 228 °C
19 | COC(=O)c1ccc(-c2nnc(-c3ccc(C(F)(F)F)cc3)o2)c(N)c1 [Example 76, methyl 3-amino-4-[5-(4-trifluoromethylphenyl)-1,3,4-oxadiazol-2-yl]benzoate] | – | 237 to 238 °C
20 | O=Cc1ccc(-c2noc(-c3ccc(C(F)(F)F)cc3)n2)cc1 [Example 77, 4-[5-(4-trifluoromethylphenyl)-1,2,4-oxadiazol-3-yl]benzaldehyde] | – | 145 to 146 °C
21 | O=C(O)c1ccc(-c2nc(-c3cccc(Oc4ccccc4)c3)no2)cc1 [Example 79, 4-[3-(3-phenoxyphenyl)-1,2,4-oxadiazol-5-yl]benzoic acid] | – | 292 to 293 °C
22 | O=Cc1cccc(-c2nnc(-c3ccc(C(F)(F)F)cc3)o2)c1 [Example 80, 3-[5-(4-trifluoromethylphenyl)-1,3,4-oxadiazol-2-yl]benzaldehyde] | – | 129 to 130 °C
23 | O=Cc1ccc(-c2nnc(-c3ccccc3[N+](=O)[O-])o2)cc1 [Example 81, 4-[5-(2-nitrophenyl)-1,3,4-oxadiazol-2-yl]benzaldehyde] | – | 189 to 190 °C
24 | O=Cc1cccc(-c2cc(-c3ccc(C(F)(F)F)cc3)no2)c1 [Example 82, 3-[3-(4-trifluoromethylphenyl)-5-isoxazolyl]benzaldehyde] | – | 151 to 152 °C
